Values of other authors in EP0176772A1, “Process for sustaining the release of vitamins C and E” (RODISMA Pharmazeutische Produkte GmbH, priority 1984, dated 1986).
Read-outs that look alike come from different tables or passages of the source. Blank lines part the entries; values can stand above or below the compound they belong to.

What was measured:
[1] = not given; remark: listed apart in the source

Compound: Cc1c(C)c2c(c(C)c1O)CCC(C)(CCCC(C)CCCC(C)CCCC(C)C)O2 [D-alpha-Tocopherol]
maximale Plasmaspiegel, time of (orale Verabreichung von 600 mg an eine Versuchsperson (Hashim und Schuttringer)): ~7 Stunden
Maximum der Plasma-Tocopherol-Konzentration, time of (orale Verabreichung von (Hashim und Schuttringer)): 7 Stunden

Maximum (plasma vitamin E), time of (human, in vivo, po): 7 Stunden
Compound: Vitamin E

Resorption ([1]; Einzeldosen bis 180 mg, dosisproportional (Kübler und Gehler)): ~70%
resorbiert ([1]; Einzeldosis von 1 g, 3-Kompartiment-Modell (Hornig und Moser)): 75%
resorbiert ([1]; orale Ascorbinsäurebelastung mit 12 g): 16%
Compound: O=C1O[C@H]([C@@H](O)CO)C(O)=C1O [Vitamin C, Ascorbinsäure]
